The source of these data is patent US11952364B2, “TRK inhibitors useful as anticancer drugs” (TYLIGAND BIOSCIENCE (SHANGHAI) LIMITED, priority 2018, dated 2024).

Like-named read-outs stand apart in the source and are kept apart here.

In the assay the test system is Ba/F3 LMNA-NTRK1-G667C cells. The experiment in a line: Proliferation of Ba/F3 LMNA-NTRK1-G667C cells (CellTiter-Glo). The assay is classed as cell-based, mouse. As to conditions: Mus musculus. From the text: Ba/F3 LMNA-NTRK1-G667C is a stable transgenic cell line constructed by KYinno Biotechnology Co., Ltd. on mouse primary B cell Ba/F3 wherein NTRK1 has a mutation of G to Cat position 667 and is highly expressed and fused with LMNA to form LMNA-NTRK1-G667C. • [Test method]: Promega's CellTiter-Glo® Luminescent Cell Viability Assay kit was used to evaluate the inhibitory activity of the compounds on the proliferation of Ba/F3 LMNA-NTRK1-G667C cells. • [Instrument]: Spectramax M3 multifunctional microplate reader from Molecular Devices. • [Test materials]: Ba/F3 LMNA-NTRK1-G667C cell line (constructed by KYinno Co., Ltd. (Beijing)), 96-well transparent flat-bottomed black-walled cell culture plate (Corning, cat #3603), RPMI-1640 media (GE, cat #SH30027.01), fetal bovine serum FBS (Thermo Fisher, cat #10099-141), CellTiter-Glo® Luminescent Cell Viability Assay kit (Promega, cat #G7572), PBS (Solarbio, cat #P1020), DMSO (Sigma, cat #D2650). • [Experimental procedure]: When resuscitating Ba/F3 LMNA-NTRK1-G667C cells, the freezing tube was quickly shaken in a 37° C. water bath to melt within 1 minute. The thawed cell suspension was mixed uniformly with RPMI1640 medium containing 10% FBS, centrifuged at 1000 rpm for 5 minutes, and the supernatant discarded. 5 mL of complete medium (RPMI1640 medium with 10% FBS) was taken to resuspend the cell pellets, charged into a cell culture flask with a bottom area of 25 cm^2, and incubated in a cell incubator at 37° C., 95% humidity and 5% CO2. Cells were allowed to passage when the number of cells reached about 10^6 cells/mL. For cell passage, the old cell suspension was directly pipetted evenly, 1/5 of the cell suspension was kept, 4 mL of new complete medium was added, after pipetting evenly, the cell flask was placed in the cell incubator for further culturing. Cell plating was performed when the number of cells reached about 10^6 cells/mL again. For cell plating, 1/5 of the cell suspension was kept for further culturing as in the cell passage method, and the remaining 4/5 of the cell suspension was placed in a 15 mL centrifuge tube, detected for cell viability by Trypan blue exclusion method to ensure that cell viability was above 90%. A cell suspension with a density of 5.56×10^4 viable cells/mL was prepared with complete medium, and 90 μL of such cell suspension was added to a 96-well cell culture plate to obtain the cell density of 5000 viable cells/mL in the cell culture plate. A control group containing no cells, no compound and only complete medium (i.e. culture medium control) and a control group containing no compound but containing cells (i.e. cell control) were set. The cell plate was placed in a cell incubator overnight. The 10 mM compound stock solution in DMSO was first serially diluted with DMSO at a dilution factor of 3.16 times, to obtain 9 concentrations, and the 10th concentration was set as DMSO control without compound. Then, PBS was used to dilute the DMSO solutions of compounds of different concentrations, at a dilution factor of 100 times, so that the DMSO concentration in the compound solution of each concentration was 1%. Finally, 10 μL of each of the above solutions was added to the corresponding cell culture plate, so that the initial compound concentration was 10 μM, with the remaining concentrations being successively diluted at a dilution factor of 3.16 times, and the DMSO content in the cell culture plate was 0.1%. The cell plate was placed in a cell incubator and cultured for 72 hours. For endpoint detection, the CellTiter-Glo reagent was melted, and the cell plate was moved to room temperature to equilibrate for 30 minutes, added with 100 μL of CellTiter-Glo for each well, and shaken on an orbital shaker for 5 minutes to fully lyse the cells. The plate was kept at room temperature for 20 minutes to stabilize the luminescence signal, and the luminescence value of each well was scanned with a multi-functional microplate reader at full wavelength. • [Test samples] […]

Setting [1] is: BaF3, Table 9, read-out: Ba/F3 LMNA-NTRK1-G667C cell proliferation inhibitory activity (IC50).
Where [2] appears, read: BaF3, 72 h, Table 4, 72 hours, read-out: Ba/F3 LMNA-NTRK1-G667C, IC50.

As for `CCOc1ccc(C(=O)Nc2ccc(Oc3cc4cnn5c4c(c3-c3cn[nH]c3)CC5)c(F)c2)c(=O)n1-c1ccc(F)cc1` [Example 32, N-(4-((5-(1H-pyrazol-4-yl)-6,7-dihydropyrrolo[3,2,1-hi]-indazol-4-yl)oxy)-3-fluorophenyl)-6-ethoxy-1-(4-fluorophenyl)-2-oxo-12-dihydropyridine-3-carboxamide], the IC50 under setting [1] was 19 nM.

For the compound `CC(C)Oc1ccc(C(=O)Nc2ccc(Oc3cc4cnn5c4c(c3-c3cn[nH]c3)CC5)c(F)c2)c(=O)n1-c1ccc(F)cc1` [Example 34, N-(4-((5-(1H-pyrazol-4-yl)-6,7-dihydropyrrolo[3,2,1-hi]-indazol-4-yl)oxy)-3-fluorophenyl)-1-(4-fluorophenyl)-6-isopropoxy-2-oxo-12-dihydropyrndine-3-carboxamide], under setting [1], the IC50 worked out at 23.7 nM.

Turning to `O=C(Nc1cnn2ccc(N3CCC[C@@H]3c3cc(F)ccc3F)nc12)N1CC[C@H](O)C1` [LOXO-101, Larotrectinib, reference compound], the IC50 under setting [2] amounted to 2410 nM.

Regarding `Cc1ccc(C(=O)Nc2ccc(Oc3cc4cnn(C)c4cc3-c3cn[nH]c3)c(F)c2)c(=O)n1-c1ccc(F)cc1` [Merestinib, reference compound], the IC50 runs as follows: under setting [2], 1.1 nM; (BaF3, Table 4-1, separate test, read-out: Ba/F3 LMNA-NTRK1-G667C, IC50) 1 nM; (BaF3, Table 4-2, separate test, read-out: Ba/F3 LMNA-NTRK1-G667C, IC50) 14.1 nM.
